# Data reported in US11214594B2, “Antimicrobial peptide having synergistic antibacterial effect with antibiotics on multidrug resistant bacteria, and use thereof” (priority 2016, dated 2022).
# Where two headings read alike, the source gives them in different places. Where a SMILES comes first, the peptide text is derived from it. [ ]: non-standard residue; d: D form.
# Columns and labels:
# [1] = system: E. coli; experiment: microbe, parasite or virus in culture; type: cell-based, Escherichia coli; details: 16 h
# Summary of the method: (§1)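 Broth microdilution in MH medium: strains diluted to 2×10^6 CFU were mixed with equal volumes of twofold serial peptide dilutions in MH medium. MIC was taken as the lowest peptide concentration preventing bacterial growth.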
# [2] = system: MDREC 1229; experiment: microbe, parasite or virus in culture; type: cell-based, Escherichia coli
# Summary of the method: as §1
# [3] = system: MDREC 1238; type: cell-based, Escherichia coli
# Summary of the method: as §1
# [4] = system: P. aeruginosa; experiment: microbe, parasite or virus in culture; type: cell-based, Pseudomonas aeruginosa
# Summary of the method: as §1
# [5] = system: MDRPA 2002; type: cell-based, Pseudomonas aeruginosa
# Summary of the method: as §1
# [6] = system: MDRPA 2003; type: cell-based, Pseudomonas aeruginosa
# Summary of the method: as §1
# [7] = system: MDRAB 12036; type: cell-based, Acinetobacter baumannii
# Summary of the method: as §1
# [8] = system: MDRST 8007; experiment: Minimal inhibitory concentration (MIC), single agent; type: cell-based, Salmonella typhimurium; details: agent alone
# Summary of the method: as §1
# [9] = system: MDRST 8009; type: cell-based, Salmonella typhimurium; details: agent alone
# Summary of the method: as §1
# [10] = system: B. subtilis; experiment: microbe, parasite or virus in culture; type: cell-based, Bacillus subtilis
# Summary of the method: as §1
# [11] = system: S. epidermidis; experiment: microbe, parasite or virus in culture; type: cell-based, Staphylococcus epidermidis
# Summary of the method: as §1
# [12] = system: MRSA 3114; type: cell-based, Staphylococcus aureus; details: 3114
# Summary of the method: as §1
# [13] = system: MRSA 3126; type: cell-based, Staphylococcus aureus; details: 3126
# Summary of the method: as §1
# [14] = system: E. coli; experiment: MIC of antibiotic during combined treatment with antimicrobial peptide; type: cell-based, Escherichia coli; details: for Antibiotic MIC, Erythromycin / Antibiotic MIC, Linezolid / Antibiotic MIC, Vancomycin: E. coli
# Summary of the method: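 First, antibiotic solution is diluted with MH medium; next, the dilution is dispensed into wells containing peptide; finally, the orientation is swapped and MIC of each mixture determined.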
# [15] = system: MDRAB 12035; experiment: as above; type: cell-based, Acinetobacter baumannii
# Summary of the method: (§2)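 Broth microdilution in MH medium; strains were diluted to 2×10^6 CFU per ml before plating. Peptide was serially diluted stepwise at 2:1 starting from its MIC, and MH-diluted antibiotic was then added to determine MIC. The reversed arrangement was also tested.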
# [16] = system: E. coli; type: cell-based, Escherichia coli; details: E. coli
# Summary of the method: as §2
# [17] = system: MDREC 1229; type: cell-based, Escherichia coli
# Summary of the method: as §2
# [18] = system: A. baumannii; experiment: MIC of antimicrobial peptide during combined treatment with antibiotic; type: cell-based, Acinetobacter baumannii
# Summary of the method: as §2
# [19] = system: MDRAB 12035; experiment: as above; type: cell-based, Acinetobacter baumannii
# Summary of the method: as §2
# [20] = peptide treatment concentration 1 μg/ml
# [21] = peptide treatment concentration 2 μg/ml
# [22] = peptide treatment concentration 4 μg/ml
# [23] = peptide treatment concentration 6 μg/ml
# [24] = peptide treatment concentration 8 μg/ml
# [25] = peptide treatment concentration 16 μg/ml
# [26] = peptide treatment concentration 32 μg/ml
# [27] = peptide treatment concentration 64 μg/ml
# [28] = linezolid 64 μg/ml (Conc./MIC 1/8)
# [29] = linezolid 512 μg/ml (Conc./MIC 1)
# [30] = vancomycin 512 μg/ml (Conc./MIC 1/2)
# [31] = vancomycin 1024 μg/ml (Conc./MIC 1)
# [32] = erythromycin 4 μg/ml (Conc./MIC 1/8)
# [33] = erythromycin 8 μg/ml (Conc./MIC 1/4)
# [34] = erythromycin 16 μg/ml (Conc./MIC 1/2)
# [35] = erythromycin 32 μg/ml (Conc./MIC 1)
structure (smiles),measurement,setting,value
"CC[C@H](C)[C@H](NC(=O)[C@H](CCCCN)NC(=O)[C@H](Cc1c[nH]c2ccccc12)NC(=O)[C@@H](N)CCCNC(=N)N)C(=O)N[C@@H](Cc1ccccc1)C(=O)N[C@@H](CCCCN)C(=O)N[C@@H](CCCCN)C(=O)N[C@H](C(=O)N[C@H](CCCCN)C(=O)N[C@@H](CCCCN)C(=O)N[C@@H](CC(C)C)C(=O)N[C@@H](CC(C)C)C(=O)N[C@@H](Cc1c[nH]cn1)C(=O)N[C@@H](CO)C(=O)N[C@@H](C)C(=O)N[C@@H](CCCCN)C(=O)N[C@@H](CCCCN)C(=O)N[C@@H](Cc1c[nH]c2ccccc12)C(N)=O)[C@@H](C)CC [PapMA-16, RWK IFK KIk KLL HSA KKW-NH2] (H-RWKIFKKI[dK]KLLHSAKKW-NH2; N-terminus assumed)",Minimal inhibitory concentration MIC,[1],64 µg/mL
same,Minimal inhibitory concentration MIC,[2],64 µg/mL
same,"Peptide MIC, peptide alone",[2],64 µg/mL
same,Minimal inhibitory concentration MIC,[3],64 µg/mL
same,Minimal inhibitory concentration MIC,[4],64 µg/mL
same,Minimal inhibitory concentration MIC,[5],64 µg/mL
same,Minimal inhibitory concentration MIC,[6],64 µg/mL
same,Minimal inhibitory concentration MIC,[7],32 µg/mL
same,Minimal inhibitory concentration MIC,[8],64 µg/mL
same,Minimal inhibitory concentration MIC,[9],64 µg/mL
same,Minimal inhibitory concentration MIC,[10],>128 µg/mL
same,Minimal inhibitory concentration MIC,[11],>128 µg/mL
same,Minimal inhibitory concentration MIC,[12],>128 µg/mL
same,Minimal inhibitory concentration MIC,[13],>128 µg/mL
same,Synergistic effect of antibacterial activity with existing antibiotics compared with PapMA-1,[14]; E. coli and MDREC1229,higher level than the PapMA-1 peptide
same,"Antibiotic MIC, Erythromycin",[14]; erythromycin combined with peptide at 1 μg/ml,128 µg/mL
same,"Antibiotic MIC, Erythromycin",[14]; erythromycin combined with peptide at 2 μg/ml,32 µg/mL
same,"Antibiotic MIC, Erythromycin",[14]; erythromycin combined with peptide at 4 μg/ml,16 µg/mL
same,"Antibiotic MIC, Erythromycin",[14]; erythromycin combined with peptide at 6 μg/ml,2 µg/mL
same,"Antibiotic MIC, Erythromycin",[14]; erythromycin combined with peptide at 8 μg/ml,2 µg/mL
same,"Antibiotic MIC, Erythromycin",[14]; erythromycin combined with peptide at 16 μg/ml,0.25 µg/mL
same,"Antibiotic MIC, Erythromycin",[14]; erythromycin combined with peptide at 32 μg/ml,0.125 µg/mL
same,"Antibiotic MIC, Erythromycin",[14]; erythromycin combined with peptide at 64 μg/ml,0 µg/mL
same,"Antibiotic MIC, Linezolid",[14]; linezolid combined with peptide at 1 μg/ml,>128 µg/mL
same,"Antibiotic MIC, Linezolid",[14]; linezolid combined with peptide at 2 μg/ml,>128 µg/mL
same,"Antibiotic MIC, Linezolid",[14]; linezolid combined with peptide at 4 μg/ml,32 µg/mL
same,"Antibiotic MIC, Linezolid",[14]; linezolid combined with peptide at 6 μg/ml,16 µg/mL
same,"Antibiotic MIC, Linezolid",[14]; linezolid combined with peptide at 8 μg/ml,16 µg/mL
same,"Antibiotic MIC, Linezolid",[14]; linezolid combined with peptide at 16 μg/ml,8 µg/mL
same,"Antibiotic MIC, Linezolid",[14]; linezolid combined with peptide at 32 μg/ml,4 µg/mL
same,"Antibiotic MIC, Linezolid",[14]; linezolid combined with peptide at 64 μg/ml,0 µg/mL
same,"Antibiotic MIC, Vancomycin",[14]; vancomycin combined with peptide at 1 μg/ml,>128 µg/mL
same,"Antibiotic MIC, Vancomycin",[14]; vancomycin combined with peptide at 2 μg/ml,>128 µg/mL
same,"Antibiotic MIC, Vancomycin",[14]; vancomycin combined with peptide at 4 μg/ml,>128 µg/mL
same,"Antibiotic MIC, Vancomycin",[14]; vancomycin combined with peptide at 6 μg/ml,32 µg/mL
same,"Antibiotic MIC, Vancomycin",[14]; vancomycin combined with peptide at 8 μg/ml,16 µg/mL
same,"Antibiotic MIC, Vancomycin",[14]; vancomycin combined with peptide at 16 μg/ml,8 µg/mL
same,"Antibiotic MIC, Vancomycin",[14]; vancomycin combined with peptide at 32 μg/ml,4 µg/mL
same,"Antibiotic MIC, Vancomycin",[14]; vancomycin combined with peptide at 64 μg/ml,0 µg/mL
same,Erythromycin MIC during combined treatment with peptide,[15]; [20],32 µg/mL
same,Linezolid MIC during combined treatment with peptide,[15]; [20],>128 µg/mL
same,Vancomycin MIC during combined treatment with peptide,[15]; [20],>128 µg/mL
same,Erythromycin MIC during combined treatment with peptide,[15]; [21],32 µg/mL
same,Linezolid MIC during combined treatment with peptide,[15]; [21],>128 µg/mL
same,Vancomycin MIC during combined treatment with peptide,[15]; [21],>128 µg/mL
same,Erythromycin MIC during combined treatment with peptide,[15]; [22],16 µg/mL
same,Linezolid MIC during combined treatment with peptide,[15]; [22],128 µg/mL
same,Vancomycin MIC during combined treatment with peptide,[15]; [22],64 µg/mL
same,Erythromycin MIC during combined treatment with peptide,[15]; [23],4 µg/mL
same,Linezolid MIC during combined treatment with peptide,[15]; [23],32 µg/mL
same,Vancomycin MIC during combined treatment with peptide,[15]; [23],32 µg/mL
same,Erythromycin MIC during combined treatment with peptide,[15]; [24],1 µg/mL
same,Linezolid MIC during combined treatment with peptide,[15]; [24],16 µg/mL
same,Vancomycin MIC during combined treatment with peptide,[15]; [24],16 µg/mL
same,Erythromycin MIC during combined treatment with peptide,[15]; [25],0.25 µg/mL
same,Linezolid MIC during combined treatment with peptide,[15]; [25],8 µg/mL
same,Vancomycin MIC during combined treatment with peptide,[15]; [25],8 µg/mL
same,Erythromycin MIC during combined treatment with peptide,[15]; [26],0 µg/mL
same,Linezolid MIC during combined treatment with peptide,[15]; [26],0 µg/mL
same,Vancomycin MIC during combined treatment with peptide,[15]; [26],0 µg/mL
same,Erythromycin MIC during combined treatment with peptide,[15]; [27],0 µg/mL
same,Linezolid MIC during combined treatment with peptide,[15]; [27],0 µg/mL
same,Vancomycin MIC during combined treatment with peptide,[15]; [27],0 µg/mL
same,Peptide MIC,[16]; with Erythromycin […] (Conc./MIC 1),0 µg/mL
same,Peptide MIC,[16]; with Linezolid […] (Conc./MIC 1),0 µg/mL
same,Peptide MIC,[16]; with Vancomycin 1024 μg/ml (Conc./MIC 1),0 µg/mL
same,Peptide MIC during treatment with antibiotic,[17]; erythromycin 32 μg/ml (Conc./MIC 1/8),4 µg/mL
same,Peptide MIC during treatment with antibiotic,[17]; erythromycin 64 μg/ml (Conc./MIC 1/4),2 µg/mL
same,Peptide MIC during treatment with antibiotic,[17]; erythromycin […] (Conc./MIC 1),0 µg/mL
same,Peptide MIC during treatment with antibiotic,[17]; erythromycin […] (Conc./MIC 1/2),2 µg/mL
same,Peptide MIC during treatment with antibiotic,[17]; [28],4 µg/mL
same,Peptide MIC during treatment with antibiotic,[17]; [29],0 µg/mL
same,Peptide MIC during treatment with antibiotic,[17]; linezolid […] (Conc./MIC 1/2),1 µg/mL
same,Peptide MIC during treatment with antibiotic,[17]; linezolid […] (Conc./MIC 1/4),2 µg/mL
same,Peptide MIC during treatment with antibiotic,[17]; [30],2 µg/mL
same,Peptide MIC during treatment with antibiotic,[17]; [31],1 µg/mL
same,Peptide MIC during treatment with antibiotic,[17]; vancomycin […] (Conc./MIC 1/4),4 µg/mL
same,Peptide MIC during treatment with antibiotic,[17]; vancomycin […] (Conc./MIC 1/8),8 µg/mL
same,Peptide MIC during treatment with antibiotic,[18]; [32],4 µg/mL
same,Peptide MIC during treatment with antibiotic,[18]; [33],4 µg/mL
same,Peptide MIC during treatment with antibiotic,[18]; [34],2 µg/mL
same,Peptide MIC during treatment with antibiotic,[18]; [35],0 µg/mL
same,Peptide MIC during treatment with antibiotic,[18]; linezolid 32 μg/ml (Conc./MIC 1/8),8 µg/mL
same,Peptide MIC during treatment with antibiotic,[18]; linezolid 64 μg/ml (Conc./MIC 1/4),8 µg/mL
same,Peptide MIC during treatment with antibiotic,[18]; linezolid […] (Conc./MIC 1),0 µg/mL
same,Peptide MIC during treatment with antibiotic,[18]; linezolid […] (Conc./MIC 1/2),4 µg/mL
same,Peptide MIC during treatment with antibiotic,[18]; [30],0.25 µg/mL
same,Peptide MIC during treatment with antibiotic,[18]; [31],0 µg/mL
same,Peptide MIC during treatment with antibiotic,[18]; vancomycin […] (Conc./MIC 1/4),0.5 µg/mL
same,Peptide MIC during treatment with antibiotic,[18]; vancomycin […] (Conc./MIC 1/8),2 µg/mL
same,Peptide MIC during treatment with erythromycin,[19]; [32],4 µg/mL
same,Peptide MIC during treatment with erythromycin,[19]; [33],4 µg/mL
same,Peptide MIC during treatment with erythromycin,[19]; [34],4 µg/mL
same,Peptide MIC during treatment with erythromycin,[19]; [35],0 µg/mL
same,Peptide MIC during treatment with linezolid,[19]; [28],4 µg/mL
same,Peptide MIC during treatment with linezolid,[19]; [29],0 µg/mL
same,Peptide MIC during treatment with linezolid,[19]; linezolid […] (Conc./MIC 1/2),1 µg/mL
same,Peptide MIC during treatment with linezolid,[19]; linezolid […] (Conc./MIC 1/4),4 µg/mL
same,Peptide MIC during treatment with vancomycin,[19]; [30],2 µg/mL
same,Peptide MIC during treatment with vancomycin,[19]; [31],1 µg/mL
same,Peptide MIC during treatment with vancomycin,[19]; vancomycin […] (Conc./MIC 1/4),4 µg/mL
same,Peptide MIC during treatment with vancomycin,[19]; vancomycin […] (Conc./MIC 1/8),8 µg/mL
